Like-named read-outs stand apart in the source and are kept apart here.
Key:
HBV = test: HepAD38 antiviral assay: reduction of viral product accumulation (virion DNA by qPCR, HBsAg or HBeAg by ELISA); format: cell-based, hepatitis B virus; conditions: Hepatitis B virus
Procedure, shortened: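 Readouts were qPCR of lysed virion DNA plus ELISA for HBsAg or HBeAg, samples diluted into linear range. HepAD38 cells, washed free of tetracycline, received compound diluted 1:200 from DMSO for 5 days; 8-day variant refreshed media and compound on days 2 and 5.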

[1] = Compound toxicity by ATPLite (total ATP levels); format: cell-based; conditions: human, three days after compound addition, 50% reduction of total ATP
Protocol: Methods: HepAD38 cells are maintained as previously reported (Ladner et al, Antimicrob. Agents Chemother. 1997, […], 1715). Briefly, cells are passaged upon attaining confluency in DMEM/F12 media in the presence of 10% FBS, Penn/Strep, 250 μg/mL G418, and 1 ug/ml tetracycline. Novel compounds are screened by first washing cells three times with PBS to remove tetracycline, and plating in 96 well plates at 35,000 cells/well. Compounds dissolved in DMSO are then diluted 1:200 into wells containing cells. Five days after compound addition, material is harvested for analysis. For an extended 8 days analysis, cells are plated and treated as described above, but media and compound are refreshed on d2 and d5 post initial treatment.
Compound toxicity is evaluated by seeding cells at 15,000 cells/well and treating with compound as described above.

[2] = 120 h, HepAD38 cells, five days after compound addition, 50% reduction of viral product vs no drug controls, read-out: HepAD38 EC50
[3] = HePAD38, 120 h, read-out: HepAD38 EC50 (μM)

| SMILES | EC50 (HBV; [2]) [µM] | also measured |
| --- | --- | --- |
| CC(=O)N(C[C@H](C)O)C[C@]1(O)C2CCC1C[C@@H](S(=O)(=O)c1cc(C(=O)Nc3cc(F)c(F)c(F)c3)ccc1Cl)C2 [Example 125] | < 0.104 | CC50 at 3 days ([1]; numeric bounds): > 6250 nM |
| O=C(NC[C@@]1(O)C2CC[C@H]1C[C@H](S(=O)(=O)c1cc(C(=O)Nc3cc(F)c(F)c(F)c3)ccc1Cl)C2)C1=CCCC1 [Example 41] | < 0.104 | CC50 at 3 days ([1]; numeric bounds): > 6250 nM |
| CC(C)(O)CNC(=O)C[C@]1(O)C2CCC1C[C@@H](S(=O)(=O)c1cc(C(=O)Nc3cc(F)c(F)c(F)c3)ccc1Cl)C2 [Example 71] | < 0.104 | CC50 at 3 days ([1]; numeric bounds): > 3000 nM |
| C[C@@H](O)COC[C@]1(O)C2CCC1C[C@@H](S(=O)(=O)c1cc(C(=O)Nc3cc(F)c(F)c(F)c3)ccc1Cl)C2 (single isomer, unassigned) [Example 130] | < 0.104 | CC50 at 3 days ([1]; numeric bounds): > 12500 nM |
| O=C(Nc1cc(F)c(F)c(F)c1)c1ccc(Cl)c(S(=O)(=O)[C@H]2CC3CCC(C2)[C@]3(O)CC(=O)N2CC(O)C2)c1 [Example 92] | < 0.104 | CC50 at 3 days ([1]; numeric bounds): > 6250 nM |
| [N-]=[N+]=NCC(O)[C@]1(O)C2CCC1C[C@@H](S(=O)(=O)c1cc(C(=O)Nc3cc(F)c(F)c(F)c3)ccc1Cl)C2 (mixture of isomers) [Example 11] | < 0.104 | CC50 at 3 days ([1]; numeric bounds): > 6250 nM |
| CC(C)OC(=O)N[C@@H](C)C(=O)NC[C@]1(O)C2CCC1C[C@@H](S(=O)(=O)c1cc(C(=O)Nc3cc(F)c(F)c(F)c3)ccc1Cl)C2 [Example 70] | < 0.104 | CC50 at 3 days ([1]; class symbols): > 25000 nM |
| O=C(Nc1cc(F)c(F)c(F)c1)c1ccc(Cl)c(S(=O)(=O)[C@H]2C3CC[C@H]2C[C@](O)(CCCO)C3)c1 [Example 9] | < 0.104 | CC50 at 3 days ([1]; numeric bounds): > 6250 nM |
| CC(C)(O)C[C@@]1(O)C2CC[C@H]1C[C@H](S(=O)(=O)c1cc(C(=O)Nc3ccc(F)c(F)c3)ccc1Cl)C2 [Example 193] | < 0.104 | CC50 at 3 days ([1]; class symbols): > 25000 nM |
| C[C@@H](O)COCC1(O)CC(CS(=O)(=O)c2cc(C(=O)Nc3ccc(F)c(F)c3)ccc2Cl)C1 (some centres unmarked) [Example 209] | > 0.2 | – |
| O=C(Nc1ccc(F)c(F)c1)c1ccc(Cl)c(S(=O)(=O)CC2CC(O)(CO)C2)c1 (centres unmarked) [Example 200] | > 0.2 | – |
| O=C(Nc1ccc(F)c(F)c1)c1ccc(Cl)c(S(=O)(=O)[C@H]2CC3CCC(C2)[C@]3(O)C(O)c2ncccc2F)c1 (some centres unmarked) [Example 297] | < 0.104 | – |
| O=C(Nc1ccc(F)c(F)c1)c1ccc(Cl)c(S(=O)(=O)[C@H]2CC3CCC(C2)[C@]3(O)CO[C@@H]2O[C@H](C(=O)O)[C@@H](O)[C@H](O)[C@H]2O)c1 [Example 330] | > 0.2 | – |
| CCC1(O)CC(S(=O)(=O)c2cc(C(=O)Nc3ccc(F)c(F)c3)ccc2Cl)C1 (centres unmarked) [Example 233] | > 0.2 | – |
| Cn1nccc1C(O)[C@]1(O)C2CCC1C[C@@H](S(=O)(=O)c1cc(C(=O)Nc3ccc(F)c(F)c3)ccc1Cl)C2 (some centres unmarked) [Example 288] | < 0.104 | – |
| O=C(Nc1ccc(F)c(F)c1)c1ccc(Cl)c(S(=O)(=O)[C@@H]2CC3CC[C@@H](C2)[C@@]3(O)C(O)c2ccnc(Br)c2F)c1 (some centres unmarked) [Example 298] | < 0.104 | – |
| O=C1NC(C(=O)NC[C@]2(O)C3CCC2C[C@@H](S(=O)(=O)c2cc(C(=O)Nc4cc(F)c(F)c(F)c4)ccc2Cl)C3)CO1 (some centres unmarked) [Example 97] | 0.1 to 0.2 | – |
| O=C(Nc1cc(F)c(F)c(F)c1)c1ccc(Cl)c(S(=O)(=O)[C@H]2CC3CCC(C2)[C@]3(O)CO[C@@H]2C[C@@H](O)[C@@H](O)C2)c1 [Example 35] | < 0.104 | – |
| COC(=O)N1CCC[C@H]1C(=O)N1C2CCC1CC(S(=O)(=O)c1cc(C(=O)Nc3cc(F)c(F)c(F)c3)ccc1Cl)C2 (some centres unmarked) [Example 143] | > 0.2 | – |
| O=C(Nc1ccc(F)c(F)c1)c1ccc(Cl)c(S(=O)(=O)[C@@H]2CC3CC[C@@H](C2)[C@@]3(O)Cn2ccc(=O)[nH]c2=O)c1 [Example 305] | < 0.104 | – |
| C[C@]1(O)C2CCC1C[C@@H](S(=O)(=O)c1cc(C(=O)Nc3ccc(F)c(F)c3)c(-c3ccccn3)cc1Cl)C2 [Example 133] | > 0.2 | – |
| COC(=O)[C@H](C)NC(=O)C1CC(S(=O)(=O)c2cc(C(=O)Nc3ccc(F)c(F)c3)ccc2Cl)C1 (some centres unmarked) [Example 255] | > 0.2 | – |
| COC(=O)N1CC(=O)C[C@H]1C(=O)NC[C@]1(O)C2CCC1C[C@@H](S(=O)(=O)c1cc(C(=O)Nc3cc(F)c(F)c(F)c3)ccc1Cl)C2 [Example 74] | 0.1 to 0.2 | – |
| O=C(Nc1ccc(F)c(F)c1)c1ccc(Cl)c(S(=O)(=O)C2CO[C@@H]3C(O)CO[C@H]23)c1 (some centres unmarked) [Example 201] | > 0.2 | – |
| C[C@]1(O)C2CCC1C[C@@H](S(=O)(=O)c1cc(C(=O)Nc3ccnnc3)ccc1Cl)C2 [Example 212] | > 0.2 | – |
| O=C(C[C@]1(O)C2CCC1C[C@@H](S(=O)(=O)c1cc(C(=O)Nc3ccc(F)c(F)c3)ccc1Cl)C2)NCCO [Example 184] | < 0.104 | – |
| O=C(Nc1ccc(F)c(F)c1)c1ccc(Cl)c(S(=O)(=O)[C@H]2CC3CCC(C2)[C@]3(O)C(O)Cn2cccn2)c1 (some centres unmarked) [Example 314] | < 0.104 | – |

| SMILES | EC50 (HBV; [2]) [µM] | also measured |
| --- | --- | --- |
| O=C1N[C@H](C(=O)NC[C@]2(O)C3CCC2C[C@@H](S(=O)(=O)c2cc(C(=O)Nc4cc(F)c(F)c(F)c4)ccc2Cl)C3)CO1 [Example 85] | > 0.2 | – |
| Cc1ccc(NC(=O)c2ccc(Cl)c(S(=O)(=O)[C@H]3CC4CCC(C3)[C@@]4(C)O)c2)cc1F [Example 44] | > 0.2 | – |
| NS(=O)(=O)NC[C@]1(O)C2CCC1C[C@@H](S(=O)(=O)c1cc(C(=O)Nc3cc(F)c(F)c(F)c3)ccc1Cl)C2 [Example 156] | < 0.104 | – |
| O=C1NCC([C@H](O)[C@@H](O)[C@]2(O)C3CCC2C[C@@H](S(=O)(=O)c2cc(C(=O)Nc4ccc(F)c(F)c4)ccc2Cl)C3)O1 (some centres unmarked) [Example 348] | < 0.104 | – |
| COC(=O)N[C@@H](C)C(=O)NC[C@]1(O)C2CCC1C[C@@H](S(=O)(=O)c1cc(C(=O)Nc3ccc(F)c(F)c3)ccc1Cl)C2 [Example 159] | < 0.104 | – |
| O=C(Nc1ccc(F)c(F)c1)c1ccc(Cl)c(S(=O)(=O)[C@H]2CC3CCC(C2)[C@]3(O)C(O)c2ccccn2)c1 (some centres unmarked) [Example 284] | < 0.104 | – |
| COC(=O)N[C@H](C(=O)N1C2CCC1CC(S(=O)(=O)c1cc(C(=O)Nc3cc(F)c(F)c(F)c3)ccc1Cl)C2)C(C)C (some centres unmarked) [Example 142] | – | EC50 (HBV; [3]): 0.1 to 0.2 µM |
| COC(=O)N[C@@H](C)C(=O)N1C2CCC1CC(S(=O)(=O)c1cc(C(=O)Nc3cc(F)c(F)c(F)c3)ccc1Cl)C2 (single isomer, unassigned) [Example 141] | – | EC50 (HBV; [3]): 0.1 to 0.2 µM |
| COC(=O)CCNC(=O)C[C@]1(O)C2CCC1C[C@@H](S(=O)(=O)c1cc(C(=O)Nc3cc(F)c(F)c(F)c3)ccc1Cl)C2 [Example 139] | > 0.2 | – |
| C[C@]1(O)C2CCC1C[C@@H](S(=O)(=O)c1cc(C(=O)Nc3ccc(F)c(CO)c3)ccc1Cl)C2 [Example 166] | < 0.104 | – |
| C=CC1(O)CC(S(=O)(=O)c2cc(C(=O)Nc3ccc(F)c(F)c3)ccc2Cl)C1 (centres unmarked) [Example 260] | > 0.2 | – |
| C[C@H](O)CC(=O)NC[C@]1(O)C2CCC1C[C@@H](S(=O)(=O)c1cc(C(=O)Nc3ccc(F)c(F)c3)ccc1Cl)C2 [Example 169] | 0.1 to 0.2 | – |
| CC(C)([C@H]1CC[C@](C)(O)CC1)S(=O)(=O)c1cc(C(=O)Nc2ccc(F)c(F)c2)ccc1Cl [Example 238] | > 0.2 | – |
| O=C(Nc1ccc(F)c(F)c1)c1ccc(Cl)c(S(=O)(=O)[C@H]2CC3CCC(C2)[C@]3(O)[C@H](O)c2ccc(F)cn2)c1 (single isomer, unassigned) [Example 291b] | < 0.104 | – |
| O=C(Nc1ccc(F)c(F)c1)c1ccc(Cl)c(S(=O)(=O)CC2CC=CCC2)c1 (centres unmarked) [Example 227] | > 0.2 | – |
| O=C(Nc1ccc(F)c(F)c1)c1ccc(Cl)c(S(=O)(=O)[C@@H]2CC3CC[C@@H](C2)[C@@]3(O)C(O)c2ccc(C(F)(F)F)cn2)c1 (some centres unmarked) [Example 300] | > 0.2 | – |
| CC(C)C(O)[C@]1(O)C2CCC1C[C@@H](S(=O)(=O)c1cc(C(=O)Nc3ccc(F)c(F)c3)ccc1Cl)C2 (some centres unmarked) [Example 281] | > 0.2 | – |
| O=C(Nc1ccc(F)c(F)c1)c1ccc(Cl)c(S(=O)(=O)[C@H]2CC3CCC(C2)[C@]3(O)[C@@H](O)CO)c1 (single isomer, unassigned) [Example 175] | < 0.104 | – |
| COC[C@]1(O)C2CCC1C[C@@H](S(=O)(=O)c1cc(C(=O)Nc3cc(F)c(F)c(F)c3)ccc1Cl)C2 [Example 123] | < 0.104 | – |
| O=C(Nc1ccc(F)c(F)c1)c1ccc(Cl)c(S(=O)(=O)[C@H]2CC3CCC(C2)[C@]3(O)C(O)Cc2cccnc2)c1 (some centres unmarked) [Example 318] | > 0.2 | – |
| O=C(Nc1cc(F)c(F)c(F)c1)c1ccc(Cl)c(S(=O)(=O)[C@H]2CC3CCC(C2)[C@]3(O)CO[C@H]2C[C@@H](O)[C@@H](O)C2)c1 [Example 34] | < 0.104 | – |
| CC(O)C(O)CNC(=O)[C@]1(O)C2CCC1C[C@@H](S(=O)(=O)c1cc(C(=O)Nc3cc(F)c(F)c(F)c3)ccc1Cl)C2 (mixture of isomers) [Example 38] | > 0.2 | – |
| O=C(Nc1ccc(F)c(F)c1)c1ccc(Cl)c(S(=O)(=O)[C@H]2CC3CCC(C2)[C@]3(O)C(O)c2ccncc2)c1 (some centres unmarked) [Example 286] | 0.1 to 0.2 | – |
| COC(=O)CNC(=O)C[C@]1(O)C2CCC1C[C@@H](S(=O)(=O)c1cc(C(=O)Nc3cc(F)c(F)c(F)c3)ccc1Cl)C2 [Example 119] | > 0.2 | – |
| C[C@]1(O)C2CCC1C[C@@H](S(=O)(=O)c1cc(C(=O)Nc3cccnn3)ccc1Cl)C2 [Example 213] | > 0.2 | – |
| O=C(Nc1cc(F)c(F)c(F)c1)c1ccc(Cl)c(S(=O)(=O)[C@H]2CC3CCC(C2)[C@]3(O)CNC(=O)C2CC=CCC2)c1 (some centres unmarked) [Example 18] | < 0.104 | – |

Reference: US11596611B2, “Hepatitis B antiviral agents” (ENANTA PHARMACEUTICALS, INC., priority 2017, dated 2023)
